Entries after “also recorded” stand apart in the source; their conditions may differ. Structures can show the parent of a compound that is named as a salt.
Legend:
[1] = clinical; conditions: in vivo
Experimental: (§1) The rifamycin levels, present in the biological fluids of treated patients, were assayed by high pressure liquid chromatography (HPLC), a method more reliable and reproducible than the ultraviolet or microbiological method.
(§2) The synovial fluid samples were directly injected into the chromatograph after precipitation of the proteins with acetonitrile on the other hand, the serum samples had to be previously extracted with ethyl acetate at an acid pH.
(§3) A Hewlett Packard chromatograph is used, model 104 B, fitted with a fixed wave length detector (254 nm); RP 18 (10 mc) column, 25-cm length, […].
(§4) The following eluent is used: (A) an 80:20 mixture of 0.01 M phosphate buffer at pH 7 and acetonitrile; (B) acetonitrile. The gradient shifts from the 10 percent of B to the 70 percent of B within 15 minutes; the flow is 1.6 ml/minute.
(§5) The temperature of the oven is 35° C.; that of the eluent A is 60 percent and the one of the eluent B 40 percent.
(§6) Rifamycin SV and its oxidized form, ie rifamycin S, are used as standard.
In order to establish the standard lines in the synovial fluid, 500 mg of each single compound are dissolved in one liter exactly of a 1:1 water-methanol mixture.
(§7) The two absorption lines are made up injecting 5 mcl, 10 mcl and 15 mcl of said solutions into the chromatograph.
Determination of rifamycin SV in the synovial fluid
This determination is directly carried out on the deproteinized synovial fluid. 200 mcl of sample are introduced into a centrifuge test tube, and added with 2 ml of acetonitrile.
The resulting solution is stirred, and allowed to decant; 20 mcl of supernatant fluid are thereafter injected into the chromatograph. The samples are analyzed immediately in order to prevent the oxidation of rifamycin SV into rifamycin S.
(§8) The data are expressed as mcg/ml.

[2] = pH of aqueous solutions of the salts; format: physicochemical
[3] = tested on: persistent effusions in one or both knees
Experimental: In a second clinical experimental course, 75 patients, presenting with persistent effusions in one or both knees were given 500 mg of rifamycin SV (in the form of a L-arginine salt) every seven days, still by intra-articular injection.

[4] = Comparison of synovial fluid rifamycin levels, sodium salt vs arginine salt (Table 2); format: in vivo, patients; conditions: equivalent to 500 mg rifamycin SV; for concentration at 5 min / concentration at 1 h / concentration at 2 h / concentration at 4 h / concentration at 8 h: human, synovial fluid, mean of eight determinations
[5] = tested on: joint sites other than the knee (wrist, hand's metacarpophalangeal and interphalangeal joints, tibiotarsal joints, etc); assay: Infiltrations into joint sites other than the knee; format: in vivo, patients; conditions: approximately 300 joints
Description: (§9) Two of the 75 patients had to stop the treatment because of the above mentioned untoward side effect.

[6] = Rifamycin levels in monoarthritic guinea-pig after intra-articular administration; format: in vivo; conditions: monoarthritic guinea-pig (gamma-globulin arthritis)
Description: The observation that in the monoarthritic guinea-pig (gamma-globulin arthritis) rifamycin arginine salt levels, 10 times higher than in the case of rifamycin sodium salt, can be observed following an intra-articular administration of either rifamycin sodium salt or arginine salt, proves in full agreement with the above mentioned datum.

[7] = Solubility of the salts; format: physicochemical
[8] = tested on: rabbit's spinal sac; assay: Local tolerability after injection into the rabbit's spinal sac; format: in vivo; conditions: 60-mg injection once daily for three consecutive days, versus commercial solutions of rifamycin SV
[9] = Stability of solutions and lyophilyzed salts; format: physicochemical; conditions: dry state
[10] = tested on: cultures of synovial membrane fragments; assay: Inhibiting activity on cultures of synovial membrane fragments; format: cell-based; conditions: needle biopsy, patients with suspected rheumatoid arthritis
Description: as §9

[11] = tested on: rheumatoid synovitis; assay: Clinical trials (open and double-blind) in rheumatoid synovitis; format: in vivo, patients
Experimental: The effects of intra-articular injections of rifamycin SV solutions in rheumatoid synovitis were assessed in two clinical trials, one carried out according to an open technique and the other one according to a double-blind experimental design. A total of 35 patients was treated, with an intra-articular injection of 200-500 mg weekly, for a maximum of 10 weeks. The patients were followed up for three years. The following laboratory diagnostic tests were made weekly on the synovial fluids: white blood cell differential count, RA test, Waaler-Rose test, latex test, immunoglobulins, T and B lymphocytes, C3 and C4 levels, glucose, acid phosphatase.
Bioptic examinations were carried out both before and after various months (1-18) after the start of the treatment.

[12] = tested on: rheumatoid arthritis; assay: Intra-articular injections in rheumatoid arthritis (general statement); format: in vivo; conditions: rheumatoid arthritis patients
[13] = in vivo
Experimental: as §1, §2, §3, §4, §5, §6, §7
The previous solutions are ten-fold diluted in the case of sera standard lines; the above mentioned operations are thereafter repeated.
Determination of Rifamycin in the Serum […]
as §8

[14] = synovial fluid, end of the treatment

With COC1C=COC2(C)Oc3c(C)c(O)c4c(O)c(cc(O)c4c3C2=O)NC(=O)C(C)=CC=CC(C)C(O)C(C)C(O)C(C)C(OC(C)=O)C1C [L-arginine salt of rifamycin SV, rifamycin SV salt with arginine] as the molecule, how does the concentration at 0.25 h ([1]; human) read?
The concentration at 0.25 h was 4930 ± 550 µg/mL.

What about the “pH of 10 percent aqueous solution” value ([2]; 10 percent aqueous solution) of the same molecule?
Its value is 6.7.

And the “patients with complete subsidence of effusions and marked clinical improvement” value ([3]; 500 mg rifamycin SV every seven days intra-articular, of 75 patients)?
Its value is “seventy-two”.

And the “patients with effusional relapse” value ([3]; 1-6 months after the start of the treatment)?
The value was 3 patients.

And the “patients not responding to 12 infiltrations” value ([3]; 12 infiltrations)?
Its value is “one”.

And the synovial fluid leukocytes ([3]; P<0.001)?
The synovial fluid leukocytes was “significant decrease”.

What about the “C3 and C4 complemental fractions in synovial fluid” value ([3]; P<0.005) of the same molecule?
Its value is “increase”.

What about the “relation of number of infiltrations with activity of the local synovitis” value ([3]; P<0.05) of the same molecule?
The value was “strictly related”.

What about the “patients requiring 1-3 infiltrations to induce effusion subsidence” value ([3]; out of 72) of the same molecule?
The value was 12 patients.

What about the “patients requiring 4-6 infiltrations to induce effusion subsidence” value ([3]; out of 72) of the same molecule?
Its value is 33 patients.

And the “patients requiring 7-12 infiltrations to induce effusion subsidence” value ([3]; out of 72)?
The value was 27 patients.

And the “synovial fluid levels compared with sodium salt” value ([4]; intra-articular)?
Its value is “marked superiority”.

And the concentration at 5 min [4]?
The concentration at 5 min was 7160 ± 2100 µg/mL.

What about the concentration at 1 h [4] of the same molecule?
The concentration at 1 h was 3850 ± 800 µg/mL.

And the concentration at 2 h [4]?
The concentration at 2 h was 1730 ± 1000 µg/mL.

And the concentration at 4 h [4]?
Its concentration at 4 h is 750 ± 300 µg/mL.

And the concentration at 8 h [4]?
The concentration at 8 h was 173 ± 100 µg/mL.

What about the “analgesic and anti-inflammatory activity” value [5] of the same molecule?
Its value is “potent analgesic and anti-inflammatory activity”.

And the joint function [5]?
Its joint function is “overall improvement of joint function”.

And the morning stiffness [5]?
The morning stiffness was “marked reduction, and quite often in a complete subsidence”.

What about the “rifamycin arginine salt levels vs rifamycin sodium salt” value [6] of the same molecule?
The value was 10 times higher.

And the solubility in acetone ([7]; listed as arginine salt)?
The solubility in acetone was “highly soluble”.

What about the solubility in chloroform ([7]; chloroform) of the same molecule?
The solubility in chloroform was “sparingly soluble”.

And the “solubility in ethyl acetate” value ([7]; listed as arginine salt)?
The value was “sparingly soluble”.

What about the solubility in methanol ([7]; listed as arginine salt) of the same molecule?
The solubility in methanol was “highly soluble”.

And the solubility in water ([7]; listed as arginine salt)?
Its solubility in water is “highly soluble”.

And the solubility in water ([7]; listed as arginine salt of rifamycin SV)?
The solubility in water was “optimal water solubility properties”.

What about the local tolerability [8] of the same molecule?
Its local tolerability is “optimal and definitely better than that observed in the case of commercial solutions”.

For COC1C=COC2(C)Oc3c(C)c(O)c4c(O)c(cc(O)c4c3C2=O)NC(=O)C(C)=CC=CC(C)C(O)C(C)C(O)C(C)C(OC(C)=O)C1C (centres unmarked) [histidine salt, rifamycin SV salt with histidine], which “pH of 20 percent aqueous solutions” value ([2]; 20 percent aqueous solutions) is on record?
The value was 6.4-6.7.

What about the solubility in acetone [7] of the same molecule?
Its solubility in acetone is “good”.

And the solubility in benzene ([7]; benzene)?
Its solubility in benzene is “practically nil”.

What about the solubility in ethanol ([7]; ethanol) of the same molecule?
The solubility in ethanol was “good”.

And the solubility in ether ([7]; ether)?
Its solubility in ether is “practically nil”.

What about the “solubility in ethyl acetate” value [7] of the same molecule?
The value was “practically nil”.

What about the solubility in isopropanol ([7]; isopropanol) of the same molecule?
Its solubility in isopropanol is “practically nil”.

What about the solubility in methanol [7] of the same molecule?
Its solubility in methanol is “high”.

And the solubility in water [7]?
The solubility in water was “high”.

What does the source list for CO[C@H]1/C=C/O[C@@]2(C)Oc3c(C)c(O)c4c(O)c(cc(O)c4c3C2=O)NC(=O)/C(C)=C\C=C\[C@H](C)[C@H](O)[C@@H](C)[C@@H](O)[C@@H](C)[C@H](OC(C)=O)[C@@H]1C [rifamycin SV sodium salt, reference compound]?
preservation of lyophilyzed salt [9]: can be preserved for years at room temperature; concentration at 5 min [4]: 6700 ± 200 µg/mL; concentration at 1 h [4]: 1530 ± 490 µg/mL; concentration at 2 h [4]: 485 ± 180 µg/mL; concentration at 4 h [4]: 439 ± 180 µg/mL; concentration at 8 h [4]: 140 ± 67 µg/mL; solubility in water [7]: scarcely soluble in water

Which “diffusion of rifamycin SV injected into the joint” value [1] does the source give for COC1C=COC2(C)Oc3c(C)c(O)c4c(O)c(cc(O)c4c3C2=O)NC(=O)C(C)=CC=CC(C)C(O)C(C)C(O)C(C)C(OC(C)=O)C1C (centres unmarked) [rifamycin SV] here?
Its value is “scarce diffusion”.

And the “rifamycin species present in the synovial fluid” value [1]?
Its value is “Only rifamycin SV is present in the synovial fluid”.

What about the initial local pain ([3]; human, in vivo) of the same molecule?
Its initial local pain is “majority of the patients”.

What about the “patients who had to stop the treatment because of side effect” value ([3]; human, in vivo) of the same molecule?
The value was “Two”.

And the “patients with local retarded painful reaction” value ([3]; human, in vivo)?
Its value is 28 patients.

What about the “inhibiting activity on cultures of synovial membrane fragments” value [10] of the same molecule?
The value was “inhibiting activity of rifamycin SV was demonstrated”.

And the “patients with reappearance of exudate” value ([11]; 35 patients, followed up for three years)?
The value was “two”.

And the disappearance of exudate ([11]; 200-500 mg weekly intra-articular, maximum 10 weeks)?
Its disappearance of exudate is “completely disappeared after the third and within the tenth instillation”.

And the “histological variations of the knees” value ([11]; biopsies before and 1-18 months after start of treatment)?
The value was “reduction of synovial cell infiltrates; also recorded: increase of newly-formed connective tissue; also recorded: surrounding areas with a residual hyperplastic synovia; also recorded: depositions of a new partially organized fibrin”.

What about the immunological parameters ([11]; end of the treatment) of the same molecule?
The immunological parameters was “No variations”.

What about the RA cells [11, 14] of the same molecule?
Its RA cells is “significant drop”.

And the polymorphocyte percentage [11, 14]?
Its polymorphocyte percentage is “significant drop”.

What about the total leukocytes [11, 14] of the same molecule?
The total leukocytes was “significant drop”.

What about the “resolution of the pathologic condition” value [12] of the same molecule?
Its value is “rapid resolution of the pathologic condition as well as to the patient's complete cure”.

For COC1C=COC2(C)Oc3c(C)c(O)c4c(c3C2=O)C(=O)C=C(NC(=O)C(C)=CC=CC(C)C(O)C(C)C(O)C(C)C(OC(C)=O)C1C)C4=O (centres unmarked) [rifamycin S], which “rifamycin species present in the serum” value [13] is on record?
The value was “serum also contains rifamycin S”.

From patent US4312866A, “Use of rifamycin SV and its related salts in the treatment of rheumatoid arthritis, and related formulations suited for the purpose” (priority 1979, dated 1982)
